In publication PMC10537738, “Antiviral Effect of 5′-Arylchalcogeno-3-aminothymidine Derivatives in SARS-CoV-2 Infection” (Molecules, 2023):
Like-named read-outs stand apart in the source and are kept apart here.

What was measured:
[1] = Cytotoxicity assay, methylene blue staining, Calu-3; details: human
SARS-CoV-2 [2] = test: microbe, parasite or virus in culture; format: cell-based
in vitro [3] = details: African green monkey
SARS-CoV-2 [4] = test: SARS-CoV-2 replication inhibition in Vero E6 cells (PFU titration); details: for EC50: read-out: EC50 24 h, Vero E6, MOI 0.01, 24 hpi; for inhibition of SARS-CoV-2 replication: Vero E6, 24 hpi, 10 µM
in vitro [5] = details: human
SARS-CoV-2 [6] = test system: SARS-CoV-2; parameters: method as in PMID 32759267; details: infected Vero E6 cells; cited from earlier work
SARS-CoV-2 [7] = test system: SARS-CoV-2; parameters: method as in PMID 33880524; details: Calu-3-based assays, 48 hpi; cited from earlier work
SARS-CoV-2 [8] = details: cell model not given; read-out: estimated EC50; cited from earlier work
[9] = Severe acute respiratory syndrome coronavirus 2, 24 h, Calu-3, MOI 0.01, 24 hpi, read-out: EC50 24 h
[10] = Severe acute respiratory syndrome coronavirus 2, 48 h, Calu-3, MOI 0.01, 48 hpi, read-out: EC50 48 h
[11] = Severe acute respiratory syndrome coronavirus 2, Calu-3, 24 h, read-out: EC50 24 h, Calu-3, MOI 0.01, 24 hpi
[12] = Severe acute respiratory syndrome coronavirus 2, Calu-3, 48 h, read-out: EC50 48 h, Calu-3, MOI 0.01, 48 hpi
[13] = read-out: EC50 48 h, Calu-3, MOI 0.01, 48 hpi
[14] = Severe acute respiratory syndrome coronavirus 2, Calu-3, read-out: inhibition of coronavirus replication
[15] = read-out: EC50 24 h, Calu-3, MOI 0.01, 24 hpi

Compound	CC50 (in vitro [3]) [µM]	EC50 (SARS-CoV-2 [4]) [µM]	CC50 (in vitro [5]) [µM]	EC50 (SARS-CoV-2 [2]; [11]) [µM]	EC50 (SARS-CoV-2 [2]; [12]) [µM]	also measured
Cc1cn([C@H]2C[C@H](N=[N+]=[N-])[C@@H](CO)O2)c(=O)[nH]c1=O [AZT, azidothymidine, reference compound]						CC50 at 72 h [1]: > 200 µM; EC50 (SARS-CoV-2 [2]; [9]): > 10 µM; EC50 (SARS-CoV-2 [2]; [10]): > 10 µM
Cc1cn([C@H]2C[C@H](N)[C@@H](C[Se]c3ccccc3)O2)c(=O)[nH]c1=O [R3a]	> 200	2.25 ± 0.43	> 200	6.37 ± 0.58	3.67 ± 1.57	
Cc1ccc([Se]C[C@H]2O[C@@H](n3cc(C)c(=O)[nH]c3=O)C[C@@H]2N)cc1 [R3b]	> 200	2.97 ± 0.62	> 200	3.82 ± 1.42	1.33 ± 0.35	inhibition at 10 µM (SARS-CoV-2 [2]; Severe acute respiratory syndrome coronavirus 2, Calu-3, read-out: inhibition of viral replication): 95%
COc1ccc([Se]C[C@H]2O[C@@H](n3cc(C)c(=O)[nH]c3=O)C[C@@H]2N)cc1 [R3c]	> 200	3.31 ± 0.92	> 200	5.17 ± 0.81	3.43 ± 1.52	
Cc1cn([C@H]2C[C@H](N)[C@@H](C[Se]c3ccc(Cl)cc3)O2)c(=O)[nH]c1=O [R3d]	98.8 ± 11.7	1.23 ± 0.54	> 200	8.29 ± 0.82	≤ 2.57	EC50 (SARS-CoV-2 [2]; [13]): 2.17 ± 0.64 µM
Cc1cn([C@H]2C[C@H](N)[C@@H](C[Se]c3cccc4ccccc34)O2)c(=O)[nH]c1=O [R3e]	> 200	1.99 ± 0.42	156 ± 5	≤ 2	≤ 2.57	inhibition of SARS-CoV-2 replication (SARS-CoV-2 [4]): approximately 95%; inhibition at 10 µM (SARS-CoV-2 [2]; [14]): > 95%; EC50 (SARS-CoV-2 [2]; [15]): 1.92 ± 0.43 µM; EC50 (SARS-CoV-2 [2]; [13]): 2.31 ± 0.54 µM
Cc1cn([C@H]2C[C@H](N)[C@@H](C[Te]c3ccccc3)O2)c(=O)[nH]c1=O [R3f]	52.1 ± 12.7	2.67 ± 0.63	44.6 ± 8.3	≤ 2	4.86 ± 1.31	inhibition of SARS-CoV-2 replication (SARS-CoV-2 [4]): approximately 95%; inhibition at 10 µM (SARS-CoV-2 [2]; [14]): > 95%
Cc1ccc([Te]C[C@H]2O[C@@H](n3cc(C)c(=O)[nH]c3=O)C[C@@H]2N)cc1 [R3n]	60.1 ± 4.4	6.1 ± 0.41	68.7 ± 11.4	≤ 2	≤ 2.57	inhibition at 10 µM (SARS-CoV-2 [2]; [14]): > 95%; EC50 (SARS-CoV-2 [2]; [15]): 1.18 ± 0.61 µM; EC50 (SARS-CoV-2 [2]; [13]): 2.57 ± 0.62 µM
COc1ccc([Te]C[C@H]2O[C@@H](n3cc(C)c(=O)[nH]c3=O)C[C@@H]2N)cc1 [R3o]	39.9 ± 4.4	4.95 ± 0.64	30.7 ± 5.6	6.18 ± 2.05	≤ 2.57	EC50 (SARS-CoV-2 [2]; [13]): 1.99 ± 1.73 µM
Cc1cn([C@H]2C[C@H](N)[C@@H](C[Te]c3ccc(Cl)cc3)O2)c(=O)[nH]c1=O [R3p]	49.7 ± 7.5	4.89 ± 0.52	35.2 ± 7.5	4.33 ± 1.03	12.7 ± 1.74	inhibition of SARS-CoV-2 replication (SARS-CoV-2 [4]): approximately 95%
Cc1cn([C@H]2C[C@H](N)[C@@H](C[Te]c3cccc4ccccc34)O2)c(=O)[nH]c1=O [R3q]	33.6 ± 6.9	4.21 ± 0.43	34.3 ± 10.2	≤ 2		inhibition at 10 µM (SARS-CoV-2 [2]; [14]): > 95%; EC50 (SARS-CoV-2 [2]; [15]): 2.03 ± 0.32 µM; melting point: 134.1 to 135.6 °C
Cc1cn([C@H]2C[C@H](N)[C@@H](CSc3ccccc3)O2)c(=O)[nH]c1=O [R3r]						CC50 at 72 h (in vitro [5]): > 200 µM; EC50 (SARS-CoV-2 [2]; [9]): > 10 µM; EC50 (SARS-CoV-2 [2]; [10]): > 10 µM
COC(=O)N[C@H](C(=O)N[C@@H](Cc1ccccc1)[C@@H](O)CN(Cc1ccc(-c2ccccn2)cc1)NC(=O)[C@@H](NC(=O)OC)C(C)(C)C)C(C)(C)C [atazanavir]						EC50 (SARS-CoV-2 [6]): 2 ± 0.12 µM
COC(=O)N[C@H](C(=O)N1CCC[C@H]1c1nc(-c2ccc(-c3ccc(-c4c[nH]c([C@@H]5CCCN5C(=O)[C@@H](NC(=O)OC)C(C)C)n4)cc3)cc2)c[nH]1)C(C)C [daclatasvir]						EC50 (SARS-CoV-2 [7]): 1.1 ± 0.3 µM
CC(C)C(=O)OC[C@H]1O[C@@H](n2ccc(NO)nc2=O)[C@H](O)[C@@H]1O [molnupiravir]						EC50 (SARS-CoV-2 [8]): 1.97 µM
